pKi: −log10 of the molar value. The source made the active and inactive calls. No cut-off for these calls is given here.
Test system: MIA PaCa-2
Assay: Antitumor activity against human MIAPaCa2 cells xenografted in SCID mouse assessed as tumor growth inhibition at 120 mg/kg/day, ip measured on day 21 to day 44 relative to vehicle-treated control
Assay type: functional, organism-based
Settings: not given

With `Nc1ccn([C@@H]2O[C@H](CO)[C@@H](O)C2(F)F)c(=O)n1` as the molecule, how does the TGI read?
The TGI was “Active”.

Test system: not listed separately
Assay: Half life in mouse
Assay type: ADME, organism-based
Settings: in vivo

Which half-life does the source give for `C[C@@H](Nc1c(Nc2ccncc2)c(=O)c1=O)C(C)(C)C` here?
Its half-life is 23.4 min.

Test system: not listed separately
Assay: Oral bioavailability in mouse
Assay type: ADME, organism-based
Settings: in vivo

Which bioavailability does the source give for `C[C@@H](Nc1c(Nc2ccncc2)c(=O)c1=O)C(C)(C)C` here?
Its bioavailability is 54%.

Target: Serine/threonine-protein kinase PLK1 (Homo sapiens, UniProt P53350)
Sequence (P53350 whole entry): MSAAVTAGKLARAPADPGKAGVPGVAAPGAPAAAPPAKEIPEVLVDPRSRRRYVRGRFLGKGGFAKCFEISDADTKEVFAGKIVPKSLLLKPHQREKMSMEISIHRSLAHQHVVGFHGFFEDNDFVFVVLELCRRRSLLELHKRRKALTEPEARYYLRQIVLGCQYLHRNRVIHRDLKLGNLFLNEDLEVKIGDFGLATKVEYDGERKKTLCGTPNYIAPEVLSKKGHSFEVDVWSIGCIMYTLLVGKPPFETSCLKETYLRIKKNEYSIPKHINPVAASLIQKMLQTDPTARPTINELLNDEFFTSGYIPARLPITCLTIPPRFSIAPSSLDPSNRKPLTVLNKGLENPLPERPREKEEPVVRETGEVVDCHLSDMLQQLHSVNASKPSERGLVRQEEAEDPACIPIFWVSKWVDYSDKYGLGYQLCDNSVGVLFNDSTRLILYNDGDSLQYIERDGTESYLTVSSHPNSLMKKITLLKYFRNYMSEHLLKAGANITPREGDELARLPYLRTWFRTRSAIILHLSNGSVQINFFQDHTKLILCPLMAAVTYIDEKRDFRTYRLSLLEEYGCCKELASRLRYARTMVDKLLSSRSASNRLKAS
Assay: Inhibition of recombinant GST-tagged PLK1 using biotin-ahx-AKMETTFYDDALNASFLPSEKKK-amide as substrate after 30 mins by scintillation counting analysis in presence of gamma-[33P]ATP
Settings: not given

With `CC(C)(C)Nc1c(Nc2ccnc(Nc3ccc(-c4ccccc4)cc3)n2)c(=O)c1=O` as the molecule, how does the pKi read?
Its pKi is 7.85.

With `COc1cc(Nc2nccc(Nc3c(N[C@H](C)C(C)(C)C)c(=O)c3=O)n2)cc(OC)c1OC` as the molecule, how does the pKi read?
The pKi was 6.63.

With `C[C@H](Nc1c(Nc2ccnc(Nc3ccc(-c4ccccc4)cc3)n2)c(=O)c1=O)C(C)(C)C` as the molecule, how does the pKi read?
Its pKi is 7.33.

With `COc1ccc(Nc2nccc(Nc3c(N[C@H](C)C(C)(C)C)c(=O)c3=O)n2)c(OC)c1` as the molecule, how does the pKi read?
Its pKi is 6.11.

With `C[C@@H](Nc1c(Nc2ccnc(Nc3cccnc3)n2)c(=O)c1=O)C(C)(C)C` as the molecule, how does the pKi read?
Its pKi is less than 4.36.

With `C[C@@H](Nc1c(Nc2ccnc(Nc3cccc(-c4ccccc4)c3)n2)c(=O)c1=O)C(C)(C)C` as the molecule, how does the pKi read?
Its pKi is 6.48.

With `Cc1ccc(Nc2nccc(Nc3c(N[C@H](C)C(C)(C)C)c(=O)c3=O)n2)cc1` as the molecule, how does the pKi read?
Its pKi is 6.00.

With `C[C@@H](Nc1c(Nc2ccnc(Nc3ccc(Oc4ccccc4)cc3)n2)c(=O)c1=O)C(C)(C)C` as the molecule, how does the pKi read?
The pKi was 6.56.

With `O=c1c(Nc2ccc(OC(F)(F)F)cc2)c(Nc2ccnc(Nc3ccc(-c4ccccc4)cc3)n2)c1=O` as the molecule, how does the pKi read?
Its pKi is 4.75.

With `C[C@@H](Nc1c(Nc2ccnc(Nc3ccccc3)n2)c(=O)c1=O)C(C)(C)C` as the molecule, how does the pKi read?
Its pKi is 6.33.

With `CC(C)(C)Nc1c(Nc2ccnc(Nc3ccc(-c4cccnc4)cc3)n2)c(=O)c1=O` as the molecule, how does the pKi read?
The pKi was 7.55.

With `COc1ccc(Nc2nccc(Nc3c(N[C@H](C)C(C)(C)C)c(=O)c3=O)n2)cc1` as the molecule, how does the pKi read?
The pKi was 6.85.

With `CC(=O)N1CCc2cc(Nc3nccc(Nc4c(NC(C)(C)C)c(=O)c4=O)n3)ccc21` as the molecule, how does the pKi read?
The pKi was 7.70.

With `CC(C)(C)CNc1c(Nc2ccnc(Nc3ccc(-c4ccccc4)cc3)n2)c(=O)c1=O` as the molecule, how does the pKi read?
Its pKi is 5.74.

With `C[C@@H](Nc1c(Nc2ccnc(Nc3cccc4ccccc34)n2)c(=O)c1=O)C(C)(C)C` as the molecule, how does the pKi read?
The pKi was 6.50.

With `CC(C)(C)Nc1c(Nc2ccnc(Nc3ccc(-c4cn[nH]c4)cc3)n2)c(=O)c1=O` as the molecule, how does the pKi read?
Its pKi is 8.00.

With `CC(C)(C)Nc1c(Nc2ccnc(Nc3ccc4c(c3)Cc3ccccc3-4)n2)c(=O)c1=O` as the molecule, how does the pKi read?
The pKi was 8.40.

With `CC(C)(C)Nc1c(Nc2ccnc(Nc3ccc4c(c3)CCO4)n2)c(=O)c1=O` as the molecule, how does the pKi read?
Its pKi is 7.66.

With `O=c1c(NCC2CC2)c(Nc2ccnc(Nc3ccc(-c4ccccc4)cc3)n2)c1=O` as the molecule, how does the pKi read?
Its pKi is 4.85.

With `C[C@@H](Nc1c(Nc2ccnc(Nc3ccc4c(c3)Cc3ccccc3-4)n2)c(=O)c1=O)C(C)(C)C` as the molecule, how does the pKi read?
The pKi was 7.39.

With `C[C@@H](Nc1c(Nc2ccnc(Nc3ccc(Br)cc3)n2)c(=O)c1=O)C(C)(C)C` as the molecule, how does the pKi read?
The pKi was 6.45.

With `CC(C)(C)Nc1c(Nc2ccnc(Nc3ccc4c(c3)[nH]c3ccccc34)n2)c(=O)c1=O` as the molecule, how does the pKi read?
Its pKi is 8.00.

With `C[C@@H](Nc1c(Nc2cccnc2)c(=O)c1=O)C(C)(C)C` as the molecule, how does the pKi read?
Its pKi is less than 4.36.

With `C[C@@H](Nc1c(Nc2ccnc(Nc3ccc(F)cc3)n2)c(=O)c1=O)C(C)(C)C` as the molecule, how does the pKi read?
The pKi was 6.63.

With `C[C@@H](Nc1c(Nc2ccnc(Nc3ccncc3)n2)c(=O)c1=O)C(C)(C)C` as the molecule, how does the pKi read?
Its pKi is less than 4.36.

With `C[C@@H](Nc1c(Nc2ccnc(Nc3ccc4c(c3)OCO4)n2)c(=O)c1=O)C(C)(C)C` as the molecule, how does the pKi read?
The pKi was 6.78.

With `CC(Nc1c(Nc2ccnc(Nc3ccc(-c4ccccc4)cc3)n2)c(=O)c1=O)c1ccccc1` (centres undefined) as the molecule, how does the pKi read?
Its pKi is 4.60.

With `CC(C)CC(C)Nc1c(Nc2ccnc(Nc3ccc(-c4ccccc4)cc3)n2)c(=O)c1=O` (centres undefined) as the molecule, how does the pKi read?
The pKi was 5.93.

With `O=c1c(NCCN2CCOCC2)c(Nc2ccnc(Nc3ccc(-c4ccccc4)cc3)n2)c1=O` as the molecule, how does the pKi read?
Its pKi is 5.07.

With `C[C@@H](Nc1c(Nc2ccnc(Nc3ccc(Cl)cc3)n2)c(=O)c1=O)C(C)(C)C` as the molecule, how does the pKi read?
Its pKi is 6.57.

With `C[C@@H](Nc1c(Nc2ccnc(Nc3ccc4ccccc4c3)n2)c(=O)c1=O)C(C)(C)C` as the molecule, how does the pKi read?
The pKi was 7.07.

With `COc1cc(Nc2ncc(C#N)c(Nc3c(N[C@H](C)C(C)(C)C)c(=O)c3=O)n2)cc(OC)c1OC` as the molecule, how does the pKi read?
The pKi was 5.11.

With `CC(C)(C)Nc1c(Nc2ccnc(Nc3ccc4[nH]ncc4c3)n2)c(=O)c1=O` as the molecule, how does the pKi read?
The pKi was 7.77.

With `CC(C)(C)Nc1c(Nc2ccnc(Nc3ccc(-c4ccccn4)cc3)n2)c(=O)c1=O` as the molecule, how does the pKi read?
Its pKi is 7.09.

With `C[C@@H](Nc1c(Nc2ccnc(Nc3ccccn3)n2)c(=O)c1=O)C(C)(C)C` as the molecule, how does the pKi read?
Its pKi is 4.39.

With `C[C@@H](Nc1c(Nc2ccccc2)c(=O)c1=O)C(C)(C)C` as the molecule, how does the pKi read?
Its pKi is 4.49.

With `CCC(C)(C)Nc1c(Nc2ccnc(Nc3ccc(-c4ccccc4)cc3)n2)c(=O)c1=O` as the molecule, how does the pKi read?
Its pKi is 7.89.

With `CC(C)(C)Nc1c(Nc2ccnc(Nc3ccc(N4CCOCC4)cc3)n2)c(=O)c1=O` as the molecule, how does the pKi read?
Its pKi is 6.76.

With `C[C@@H](Nc1c(Nc2ccnc(Nc3ccc(-c4ccccc4)cc3)n2)c(=O)c1=O)C(C)(C)C` as the molecule, how does the pKi read?
The pKi was 7.12.

With `CC(C)(C)Nc1c(Nc2nc(Nc3ccc4c(c3)Cc3ccccc3-4)ncc2F)c(=O)c1=O` as the molecule, how does the pKi read?
The pKi was less than 5.06.

With `C[C@@H](Nc1nccc(Nc2c(N[C@H](C)C(C)(C)C)c(=O)c2=O)n1)c1ccccc1` as the molecule, how does the pKi read?
Its pKi is 5.00.

With `CC(C)(C)Nc1c(Nc2ccnc(Nc3ccc(-c4csnn4)cc3)n2)c(=O)c1=O` as the molecule, how does the pKi read?
Its pKi is 7.82.

With `C[C@@H](Nc1c(Nc2ccnc(Nc3ccc4c(c3)OCCO4)n2)c(=O)c1=O)C(C)(C)C` as the molecule, how does the pKi read?
Its pKi is 6.59.

With `CC(C)C(C)Nc1c(Nc2ccnc(Nc3ccc(-c4ccccc4)cc3)n2)c(=O)c1=O` (centres undefined) as the molecule, how does the pKi read?
The pKi was 6.78.

With `C[C@@H](Nc1c(Nc2ccnc(Nc3ccc(OC(F)(F)F)cc3)n2)c(=O)c1=O)C(C)(C)C` as the molecule, how does the pKi read?
Its pKi is 6.21.

With `CC(C)(C)Nc1c(Nc2ccnc(Nc3ccc4ncsc4c3)n2)c(=O)c1=O` as the molecule, how does the pKi read?
Its pKi is 7.37.

From ChEMBL document CHEMBL2203238, “Hit to Lead optimization of a novel class of squarate-containing polo-like kinases inhibitors” (Bioorg Med Chem Lett, 2012)
